Results as given in PMC11206203, “Peptide macrocyclisation via intramolecular interception of visible-light-mediated desulfurisation” (Chemical Science, 2024).

Tests used:
[1] = Same desulfurative C-C cyclisation as series A (TCEP, Ir photocatalyst, blue light) with N-terminal Cys and C-terminal allylglycine (reversed pentapeptides); conditions: the molecule shown is the open-chain precursor; 17-membered ring; 6 M Gdn.HCl, 0.1 M Na2HPO4 pH 7.5-8.0 / MeCN 9:1; 0.5 mM; 25.0 °C
[2] = C(sp3)-C(sp3) bond formation by visible-light-mediated Cys desulfurisation: alanyl radical adds to terminal alkene of allylglycine (or O-allyl Ser, pentenylGly, acrylamide); TCEP 50 eq (25 mM), (Ir[dF(CF3)ppy]2(dtbpy))PF6 1 mol%, 450 nm blue LED; unprotected peptides; conditions: 6 M Gdn.HCl, 0.1 M Na2HPO4 pH 7.5-8.0 / MeCN 9:1, 0.5 mM, 25.0 °C

## C=CC[C@H](NC(=O)[C@H](CCC(=O)O)NC(=O)[C@H](Cc1ccccc1)NC(=O)[C@H](C)NC(=O)[C@H](CS)NC(C)=O)C(N)=O [Ac-Cys-Ala-Phe-Glu-(allylGly)-NH2]
[1]
  ring closure, conversion by HPLC: 0%

## CC[C@H](C)[C@@H]1NC(=O)[C@H](CCCCN)NC(=O)[C@@H](NC(C)=O)CCCC[C@@H](C(N)=O)NC(=O)[C@H](Cc2ccc(O)cc2)NC(=O)[C@H](CO)NC1=O [Ac-Cys-Lys-Ile-Ser-Tyr-(allylGly)-NH2]
[2]; from C=CC[C@H](NC(=O)[C@H](Cc1ccc(O)cc1)NC(=O)[C@H](CO)NC(=O)[C@@H](NC(=O)[C@H](CCCCN)NC(=O)[C@H](CS)NC(C)=O)[C@@H](C)CC)C(N)=O, 20-membered ring
  ring closure, isolated yield: 64%

## CCCC[C@H](NC(=O)[C@@H]1CCCC[C@H](NC(=O)[C@H](C)NC(=O)[C@H](CC(C)C)NC(=O)[C@H](Cc2c[nH]cn2)NC(C)=O)C(=O)N[C@@H](C(C)C)C(=O)NCC(=O)N[C@@H](CC(=O)O)C(=O)N1)C(=O)N[C@@H](CC(=O)O)C(=O)N[C@@H](CCCNC(=N)N)C(N)=O [Ac-His-Leu-Ala-(allylGly)-Val-Gly-Asp-Cys-Nle-Asp-Arg-NH2]
[2]; from C=CC[C@H](NC(=O)[C@H](C)NC(=O)[C@H](CC(C)C)NC(=O)[C@H](Cc1c[nH]cn1)NC(C)=O)C(=O)N[C@H](C(=O)NCC(=O)N[C@@H](CC(=O)O)C(=O)N[C@@H](CS)C(=O)N[C@@H](CCCC)C(=O)N[C@@H](CC(=O)O)C(=O)N[C@@H](CCCNC(=N)N)C(N)=O)C(C)C, 17-membered ring
  ring closure, isolated yield: 23%

## C[C@@H]1NC(=O)CCC[C@@H](C(N)=O)NC(=O)[C@H](C)NC(=O)[C@H](Cc2ccccc2)NC1=O [Acryloyl-Ala-Phe-Ala-Cys-NH2]
[2]; from C=CC(=O)N[C@@H](C)C(=O)N[C@@H](Cc1ccccc1)C(=O)N[C@@H](C)C(=O)N[C@@H](CS)C(N)=O, 15-membered ring, 1.0 h
  ring closure, isolated yield: 0%

## C[C@@H]1NC(=O)[C@H](Cc2ccccc2)NC(=O)[C@H](C)NC(=O)[C@@H](N)CCCCCC[C@@H](C(N)=O)NC1=O [H-(4-pentenylGly)-Ala-Phe-Ala-Cys-NH2]
[2]; from C=CCCC[C@H](N)C(=O)N[C@@H](C)C(=O)N[C@@H](Cc1ccccc1)C(=O)N[C@@H](C)C(=O)N[C@@H](CS)C(N)=O, 19-membered ring, 1.0 h
  ring closure, isolated yield: 32%

## C[C@@H]1NC(=O)[C@H](Cc2ccccc2)NC(=O)[C@H](C)NC(=O)[C@@H](N)CCCC[C@@H](C(N)=O)NC1=O [H-(allylGly)-Ala-Phe-Ala-Cys-NH2]
[2]; from C=CC[C@H](N)C(=O)N[C@@H](C)C(=O)N[C@@H](Cc1ccccc1)C(=O)N[C@@H](C)C(=O)N[C@@H](CS)C(N)=O, 17-membered ring, 0.75 h
  ring closure, isolated yield: 79%

## CSCC[C@@H]1NC(=O)[C@@H]2CCCN2C(=O)[C@H](CCCNC(=N)N)NC(=O)[C@@H](N)CCCC[C@@H](C(N)=O)NC(=O)[C@H](Cc2c[nH]cn2)NC1=O [H-(allylGly)-Arg-Pro-Met-His-Cys-NH2]
[2]; from C=CC[C@H](N)C(=O)N[C@@H](CCCNC(=N)N)C(=O)N1CCC[C@H]1C(=O)N[C@@H](CCSC)C(=O)N[C@@H](Cc1c[nH]cn1)C(=O)N[C@@H](CS)C(N)=O, 20-membered ring
  ring closure, isolated yield: 0%

## NCCCC[C@@H]1NC(=O)[C@H](CC(=O)O)NC(=O)[C@@H](N)CCCC[C@@H](C(N)=O)NC(=O)[C@H](CCC(=O)O)NC(=O)[C@H](Cc2c[nH]cn2)NC(=O)[C@H](CC(N)=O)NC(=O)[C@H](Cc2ccccc2)NC1=O [H-(allylGly)-Asp-Lys-Phe-Asn-His-Glu-Cys-NH2]
[2]; from C=CC[C@H](N)C(=O)N[C@@H](CC(=O)O)C(=O)N[C@@H](CCCCN)C(=O)N[C@@H](Cc1ccccc1)C(=O)N[C@@H](CC(N)=O)C(=O)N[C@@H](Cc1c[nH]cn1)C(=O)N[C@@H](CCC(=O)O)C(=O)N[C@@H](CS)C(N)=O, 26-membered ring
  ring closure, isolated yield: 70%

## CC(C)C[C@@H]1NC(=O)[C@H](CC(=O)O)NC(=O)[C@H](CCC(=O)O)NC(=O)[C@@H](N)CCCC[C@@H](C(N)=O)NC(=O)[C@H](CCC(N)=O)NC(=O)[C@H](Cc2ccc(O)cc2)NC(=O)[C@H](Cc2ccccc2)NC1=O [H-(allylGly)-Glu-Asp-Leu-Phe-Tyr-Gln-Cys-NH2]
[2]; from C=CC[C@H](N)C(=O)N[C@@H](CCC(=O)O)C(=O)N[C@@H](CC(=O)O)C(=O)N[C@@H](CC(C)C)C(=O)N[C@@H](Cc1ccccc1)C(=O)N[C@@H](Cc1ccc(O)cc1)C(=O)N[C@@H](CCC(N)=O)C(=O)N[C@@H](CS)C(N)=O, 26-membered ring
  ring closure, isolated yield: 65%

## CSCC[C@@H]1NC(=O)[C@H](Cc2ccc(O)cc2)NC(=O)[C@H](CC(C)C)NC(=O)[C@@H](N)CCCC[C@@H](C(N)=O)NC1=O [H-(allylGly)-Leu-Tyr-Met-Cys-NH2]
[2]; from C=CC[C@H](N)C(=O)N[C@@H](CC(C)C)C(=O)N[C@@H](Cc1ccc(O)cc1)C(=O)N[C@@H](CCSC)C(=O)N[C@@H](CS)C(N)=O, 17-membered ring
  ring closure, isolated yield: 54%

## CSCC[C@@H]1NC(=O)[C@@H](N)CCCC[C@@H](C(N)=O)NC(=O)[C@H](CCCCN)NC(=O)[C@H](CCC(=O)O)NC(=O)[C@H](CC(C)C)NC(=O)[C@H](C)NC1=O [H-(allylGly)-Met-Ala-Leu-Glu-Lys-Cys-NH2]
[2]; from C=CC[C@H](N)C(=O)N[C@@H](CCSC)C(=O)N[C@@H](C)C(=O)N[C@@H](CC(C)C)C(=O)N[C@@H](CCC(=O)O)C(=O)N[C@@H](CCCCN)C(=O)N[C@@H](CS)C(N)=O, 23-membered ring
  ring closure, isolated yield: 44%

## CSCC[C@@H]1NC(=O)[C@@H](N)CCCC[C@@H](C(N)=O)NC(=O)[C@H](CCCNC(=N)N)NC(=O)[C@H](CC(C)C)NC(=O)[C@H](Cc2c[nH]c3ccccc23)NC(=O)[C@@H]2CCCN2C1=O [H-(allylGly)-Met-Pro-Trp-Leu-Arg-Cys-NH2]
[2]; from C=CC[C@H](N)C(=O)N[C@@H](CCSC)C(=O)N1CCC[C@H]1C(=O)N[C@@H](Cc1c[nH]c2ccccc12)C(=O)N[C@@H](CC(C)C)C(=O)N[C@@H](CCCNC(=N)N)C(=O)N[C@@H](CS)C(N)=O, 23-membered ring
  ring closure, isolated yield: 65%

## CC[C@H](C)[C@@H]1NC(=O)[C@H](Cc2ccc(O)cc2)NC(=O)[C@@H](N)CCCC[C@@H](C(=O)N2CCC[C@H]2C(=O)N[C@@H](CC(C)C)C(=O)NCC(N)=O)NC(=O)[C@H](CC(N)=O)NC(=O)[C@H](CCC(N)=O)NC1=O [H-(allylGly)-Tyr-Ile-Gln-Asn-Cys-Pro-Leu-Gly-NH2]
[2]; from C=CC[C@H](N)C(=O)N[C@@H](Cc1ccc(O)cc1)C(=O)N[C@H](C(=O)N[C@@H](CCC(N)=O)C(=O)N[C@@H](CC(N)=O)C(=O)N[C@@H](CS)C(=O)N1CCC[C@H]1C(=O)N[C@@H](CC(C)C)C(=O)NCC(N)=O)[C@@H](C)CC, 20-membered ring
  ring closure, isolated yield: 0%

## NC(=O)CC[C@@H]1NC(=O)[C@H](Cc2ccc(O)cc2)NC(=O)[C@H](Cc2ccccc2)NC(=O)[C@@H](NC(=O)[C@@H](N)CC(=O)O)CCCC[C@@H](C(N)=O)NC1=O [H-Asp-(allylGly)-Phe-Tyr-Gln-Cys-NH2]
[2]; from C=CC[C@H](NC(=O)[C@@H](N)CC(=O)O)C(=O)N[C@@H](Cc1ccccc1)C(=O)N[C@@H](Cc1ccc(O)cc1)C(=O)N[C@@H](CCC(N)=O)C(=O)N[C@@H](CS)C(N)=O, 17-membered ring
  ring closure, isolated yield: 82%

## CC[C@H](C)[C@@H]1NC(=O)[C@H](Cc2ccc(O)cc2)NC(=O)[C@@H](N)CCCC[C@@H](C(=O)N2CCC[C@H]2C(=O)N[C@@H](CC(C)C)C(=O)NCC(N)=O)NC(=O)[C@H](CC(N)=O)NC(=O)[C@H](CCC(N)=O)NC1=O [H-Cys-Tyr-Ile-Gln-Asn-(allylGly)-Pro-Leu-Gly-NH2]
[2]; from C=CC[C@H](NC(=O)[C@H](CC(N)=O)NC(=O)[C@H](CCC(N)=O)NC(=O)[C@@H](NC(=O)[C@H](Cc1ccc(O)cc1)NC(=O)[C@@H](N)CS)[C@@H](C)CC)C(=O)N1CCC[C@H]1C(=O)N[C@@H](CC(C)C)C(=O)NCC(N)=O, 20-membered ring
  ring closure, isolated yield: 52%

## CC1CC[C@@H](C(N)=O)NC(=O)[C@H](C)NC(=O)[C@H](Cc2ccccc2)NC(=O)[C@H](C)NC(=O)[C@@H](N)COC1 (stereo partly drawn) [H-Ser(O-2-methylallyl)-Ala-Phe-Ala-Cys-NH2]
[2]; from C=C(C)COC[C@H](N)C(=O)N[C@@H](C)C(=O)N[C@@H](Cc1ccccc1)C(=O)N[C@@H](C)C(=O)N[C@@H](CS)C(N)=O, 19-membered ring, 0.17 h
  ring closure, isolated yield: 77%

## C[C@@H]1NC(=O)[C@H](Cc2ccccc2)NC(=O)[C@H](C)NC(=O)[C@@H](N)COCCCC[C@@H](C(N)=O)NC1=O [H-Ser(OAllyl)-Ala-Phe-Ala-Cys-NH2]
[2]; from C=CCOC[C@H](N)C(=O)N[C@@H](C)C(=O)N[C@@H](Cc1ccccc1)C(=O)N[C@@H](C)C(=O)N[C@@H](CS)C(N)=O, 19-membered ring, 1.0 h
  ring closure, isolated yield: 78%
